Test results taken from patent US20110268789A1, “USE OF PITUITARY ADENYLATE CYCLASE-ACTIVATING POLYPEPTIDE (PACAP) AND PACAP ANALOGS AS ADJUNCTIVE TREATMENTS WITH ANTICANCER AGENTS” (priority 2008, published 2011).
Read-outs that look alike come from different tables or passages of the source.

Columns and labels:
HK-2 human kidney cells = experiment: Cell-based adhesion assay: binding of cisplatin-treated renal cells to extracellular matrix components; settings: HK-2 cells, 50 μM cisplatin, FIG. 5
Description: The wells of a 96-well plate were coated with […] fibronectin, collagen I or collagen IV. […] PACAP38 partially reversed the decrease in binding to fibronectin and collagen IV in the cells exposed to cisplatin. Each value represents the mean plus/minus the standard error of four determinations. **p<0.01 compared to the corresponding cisplatin-treated (control) cells.

[1] = tested on: PC-12 rat pheochromocytoma cells; experiment: Cisplatin-induced apoptotic cell death of pheochromocytoma cells; format: cell-based; settings: PC-12 cells
Procedure: The PC-12 rat pheochromocytoma cells were cultured in F-12K medium supplemented with 15% horse serum and 2.5% fetal bovine serum. The dose-dependent inhibitory effects of PACAP38 and the PACAP38 analogs on apoptotic cell death were assessed by the quantitative determination of cytoplasmic histone-associated DNA-fragmentation (mono- and oligonucleosomes) after exposure to cisplatin for 24 hours. Each value represents the mean plus/minus the standard error of four determinations. **p<0.01 and *p<0.05 compared to the cisplatin-treated (control) cells.

[2] = tested on: light-chain immunoglobulin-secreting human myeloma cells; experiment: Carmustine-induced apoptotic cell death of myeloma cells; format: cell-based
Procedure: (§1) The light-chain immunoglobulin-secreting human myeloma cells were cultured in RPMI 1640 medium supplemented with 10% non-inactivated fetal bovine serum and 0.05 mM 2-mercaptoethanol. The effects of PACAP38, and [Ala^22]PACAP38 on apoptotic cell death was assessed by the quantitative determination of cytoplasmic histone-associated DNA-fragmentation (mono- and oligonucleosomes) after exposure to carmustine for 48 hours. Each value represents the mean plus/minus the standard deviation of three determinations. **p<0.01 and *p<0.05 compared to the carmustine-treated (control) cells.

L-132 human lung cells = experiment: Bleomycin-induced apoptotic cell death of human pulmonary epithelial cells; format: cell-based; settings: L-132 cells, peptide added to the medium, FIG. 12
Procedure: The L-132 human lung cells were cultured in Eagle's Minimum Essential Medium supplemented with 10% fetal bovine serum. […] Each value represents the mean plus/minus the standard deviation of four determinations in three replicate experiments. **p<0.01 and *p<0.05 compared to the bleomycin-treated (control) cells.
At the highest dose tested (10^−6 M), all three peptides reduced the apoptotic cell death of these epithelial cells by more than 60%. […] Therefore, pre- and/or post-treatment of subjects undergoing bleomycin-based cancer chemotherapy with therapeutic doses of PACAP38 and/or PACAP analogs should result in a higher maximal tolerable dose of bleomycin, and an increased frequency of partial clinical responses and/or an increased number of complete remissions.

[3] = tested on: light-chain immunoglobulin-secreting human myeloma cells; experiment: Thalidomide-induced apoptotic cell death of myeloma cells; format: cell-based
Procedure: as §1, with “PACAP38” for “PACAP38, and [Ala^22]PACAP38”, “thalidomide” for “carmustine”, “four” for “three”, “thalidomide-treated” for “carmustine-treated”

[4] = tested on: MCF-7 human breast cancer cells; experiment: Doxorubicin-induced apoptotic cell death of breast cancer cells; format: cell-based; settings: MCF-7 cells, doxorubicin 48 hours, FIG. 14
Procedure: The MCF-7 human breast cancer cells were cultured in Eagle's Minimum Essential Medium supplemented with 10% non-inactivated fetal bovine serum and 0.05 mM 2-mercaptoethanol. The effects of PACAP38 and N-acetyl[Ala^16,17,D-Lys^38]PACAP38 on apoptotic cell death were assessed by the quantitative determination of cytoplasmic histone-associated DNA-fragmentation (mono- and oligonucleosomes) after exposure to doxorubicin for 48 hours. Each value represents the mean plus/minus the standard deviation of three determinations. **p<0.01 compared to the doxorubicin-treated (control) cells.
At the highest dose tested (10^−6 M), both peptides reduced the apoptotic cell death of these breast cancer cells by more than 50%.

[5] = tested on: Middle cerebral artery occlusion (MCAO) in the rat; settings: cited from earlier work; for reduction of the infarct volume: 48 hours after start

PACAP38
reversal of inhibitory effect of cisplatin on binding to fibronectin-based or collagen IV-based matrix (HK-2 human kidney cells): significantly reversed
reduction in cisplatin-induced apoptotic cell death ([1]; cisplatin 24 hours, FIG. 13): dose-dependent reduction
reduction of cisplatin-induced apoptotic cell death ([1]; highest dose tested (10^−6 M)): significantly reduced
relative potency as enhancer of carmustine-induced apoptotic cell death [2]: more potent than [Ala^22]PACAP38
effect on carmustine-induced apoptotic cell death ([2]; carmustine 48 hours, FIG. 17): enhancement
effect on carmustine-induced apoptotic cell death ([2]; highest dose tested (10^−6 M)): significantly enhanced
reduction in bleomycin-induced apoptotic cell death (L-132 human lung cells): significant dose-dependent reduction
lowest dose with significant enhancement of thalidomide-induced apoptotic cell death [3]: 10^−8 M
effect on thalidomide-induced apoptotic cell death ([3]; thalidomide 48 hours, FIG. 19): dose-dependent enhancement
reduction in doxorubicin-induced apoptotic cell death [4]: dose-dependent reduction
reduction of the infarct volume ([5]; 160 pmol/hr i.v. infusion beginning 4 hours after start of MCAO): approximately 51%
reduction of the infarct volume ([5]; 160 pmol/hr i.v. infusion beginning 8 hours after start of MCAO): ~22%
reduction of the infarct volume ([5]; 160 pmol/hr i.v. infusion beginning 12 hours after start of MCAO): ~12%
effect of continuous intravenous infusion on plasma glucose levels, blood gases, blood pressure ([5]; 160 pmol/hr i.v.): did not appear to alter plasma glucose levels, blood gases or blood pressure
